According to patent US20250327023A1, “TAURINE SUPPLEMENTED CELL CULTURE MEDIUM AND METHODS OF USE” (Regeneron Pharmaceuticals, Inc., priority 2015, published 2025):

Legend:
Type in all cases: cell-based, Chinese hamster
Ab1-producing CHO cells [1] = test: Shake flask culture, varying taurine feeding schedules during production phase, antibody titer (Example 3B)
Method: Example 3B: Varying Taurine Feeding Schedules during Production Phase: To determine whether varying standard feeding schedules of taurine had any effect on the protein titer for taurine-supplemented cultures, additional experiments were conducted in analogous shake flask cultures growing Ab1-producing CHO cells. The cells were subjected to varying culture conditions similar to Example 2, where the feeding schedule was the same as before, glucose/nutrient basal feed was added as needed. Ab1-producing cultures were supplemented with a total of 5 mM taurine Similar productivity (7.1 g/L, 6.8 g/L and 7.0 g/L) is observed in varying taurine feeding schedules. Titer values as compared in this experiment are not statistically different (p>0.1) (see Table 7).

Ab1-producing CHO cells [2] = test: Ammonia by-product in shake flask culture (Example 4); conditions: taurine supplemented medium
Method: […] The cells were subjected to varying culture conditions similar to above where glucose/nutrient base feed was added as needed.

[3] = system: monoclonal antibody (Ab4) producing cell line derived from CHO-K1; test: Benchtop-scale 2L bioreactor culture, 14 days, antibody titer (Example 1B), Ab4; conditions: about 3 mM taurine on day 0, day 14; for Ab4 approximate titer increase relative to baseline: Bioreactor 4b vs 4a
Method: (§1) Example 1B—Benchtop-Scale Bioreactors: In a similar example, yet on a larger scale of production, 2L bioreactors were inoculated from a seed culture of a monoclonal antibody (Ab2, Ab3 or Ab4) producing cell line derived from CHO-K1. The inoculated cultures were grown at a temperature of 35.5° C., DO set point of 40.4% and air sparge of 22 ccm for 14 days. […] Glucose, antifoam and basal feed were supplied to the bioreactors as needed. Cultures were grown in unsupplemented medium (Bioreactor 2a, 3a, 4a) or grown in about 1 mM taurine-supplemented medium (Ab2 and Ab3) or about 3 mM taurine-supplemented medium (Ab4), added on day 0 of production (Bioreactors 2b, 3b and 4b, respectively).

[4] = system: monoclonal antibody (Ab2) producing cell line derived from CHO-K1; test: Benchtop-scale 2L bioreactor culture, 14 days, antibody titer (Example 1B), Ab2; conditions: about 1 mM taurine on day 0, day 14; for Ab2 approximate titer increase relative to baseline: Bioreactor 2b vs 2a
Method: as §1

[5] = system: monoclonal antibody (Ab1) producing cell line derived from CHO-K1; test: Shake flask culture with varying taurine concentrations, 14 days, antibody titer (Example 2); conditions: for Ab1 % titer increase vs unsupplemented: day 14
Method: Consistency of the protein titer was tested by varying the amount of taurine added to the culture at production day 0. 250 mL shake flasks were inoculated from a seed culture of a monoclonal antibody (Ab1) producing cell line derived from CHO-K1. The inoculated cells were grown at 35.5° C. for fourteen days and fed glucose and other supplemental nutrients as needed. Cells were grown in chemically defined (hydrolysate-free and serum-free) base media. Each culture contained either no taurine (unsupplemented) or taurine at 0.1 mM, 0.3 mM, 0.5 mM, 0,7 mM, 1 mM, 3 mM, 5 mM, 7,5 mM or 10 mM concentrations.

Ab1-producing CHO cells [6] = test: Shake flask culture, taurine in seed train expansion and/or production phase, 17 days, antibody titer (Example 3A); conditions: day 17
Method: The benefits of adding taurine to the culture during the expansion seed train phase were assessed in the high-throughput shake flask model. In flask 6a (Table 6), the Ab1-producing CHO cells were thawed in chemically defined (hydrolysate-free and serum-free) base media supplemented with 1 mM taurine. Taurine concentration of basal medium was maintained at 1 mM throughout the expansion phase. During production, the culture basal medium was supplemented with 1 mM taurine on day 0. Glucose and nutrient basal feed were supplied as needed during the 17 day production. Flask 6b cells grew in taurine-free (unsupplemented) chemically defined (hydrolysate-free and serum-free) basal medium throughout the seed train expansion phase. At day 0 of production, the culture basal medium was supplemented with 1 mM taurine. For the 17 day production, glucose and nutrient basal feeds were supplied as needed.

[7] = system: monoclonal antibody (Ab3) producing cell line derived from CHO-K1; test: Benchtop-scale 2L bioreactor culture, 14 days, antibody titer (Example 1B), Ab3; conditions: about 1 mM taurine on day 0; for Ab3 approximate titer increase at day 6 compared to unsupplemented medium collected on same day / Ab3 approximate titer increase at day 9 compared to unsupplemented medium collected on same day / Ab3 approximate titer increase relative to baseline: Bioreactor 3b vs 3a
Method: as §1

[8] = system: monoclonal antibody (Ab1) producing cell line derived from CHO-K1; test: High-throughput shake flask culture, 17 days, antibody titer (Example 1A); conditions: 1 mM taurine at day 0
Method: Example 1A—High-Throughput Shake Flask Culture: 250 mL shake flasks were inoculated from a seed culture of a monoclonal antibody (Abl) producing cell line derived from CHO-K1. The inoculated cells were grown at 35.5° C. for seventeen days and fed glucose and other supplemental nutrients as needed. Cells were grown in chemically defined (hydrolysate-free and serum-free) base media. Each culture flask was either unsupplemented (Flask 1a), or supplemented with 1 mM taurine at day 0 (Flask 1 b).

[9] = 0.1 mM taurine at day 0, shake flask 5b
[10] = 0.3 mM taurine at day 0, shake flask 5c
[11] = 0.5 mM taurine at day 0, shake flask 5d
[12] = 0.7 mM taurine at day 0, shake flask 5e
[13] = 1 mM taurine at day 0, shake flask 5f
[14] = 5 mM taurine at day 0, shake flask 5g
[15] = 7.5 mM taurine at day 0, shake flask 5h
[16] = 10 mM taurine at day 0, shake flask 5i

## NCCS(=O)(=O)O [Taurine, 2-aminoethanesulfonic acid]
Ab1-producing CHO cells [1]; taurine schedule: 1 mM day 0, 2 mM days 7, 10 (5 mM total)
  Ab1 Day 14 Titer: 7.0 g/L
Ab1-producing CHO cells [1]; taurine schedule: 1 mM days 0, 3, 5, 7, 10 (5 mM total)
  Ab1 Day 14 Titer: 6.8 g/L
Ab1-producing CHO cells [1]; taurine schedule: 5 mM day 0
  Ab1 Day 14 Titer: 7.1 g/L
Ab1-producing CHO cells [2]
  Abl Ammonia (average 17-day ammonia): 1.73 mM″
Ab1-producing CHO cells [2]; listed as taurine
  Ammonia decrease compared to unsupplemented medium: 32%
[3]; Bioreactor 4b
  Ab4 Titer (average 14 day antibody titer): 5.3 g/L
[3]
  Ab4 approximate titer increase relative to baseline: 20%
[3]; listed as taurine
  Ab4 approximate titer increase relative to baseline: 20%
[4]; Bioreactor 2b
  Ab2 Titer (average 14 day antibody titer): 8 g/L
[4]
  Ab2 approximate titer increase relative to baseline: 24%
[4]; listed as taurine
  Ab2 approximate titer increase relative to baseline: 24%
[5]; [9]
  Ab1 Titer (average 14-day): 6.7 g/L
  Ab1 % titer increase vs unsupplemented: 3%
[5]; [10]
  Ab1 Titer (average 14-day): 6.8 g/L
  Ab1 % titer increase vs unsupplemented: 5%
[5]; [11]
  Ab1 Titer (average 14-day): 6.9 g/L
  Ab1 % titer increase vs unsupplemented: 6%
[5]; [12]
  Ab1 Titer (average 14-day): 7.0 g/L
  Ab1 % titer increase vs unsupplemented: 8%
[5]; [13]
  Ab1 Titer (average 14-day): 7.0 g/L
  Ab1 % titer increase vs unsupplemented: 8%
[5]; [14]
  Ab1 Titer (average 14-day): 7.1 g/L
  Ab1 % titer increase vs unsupplemented: 9%
[5]; [15]
  Ab1 Titer (average 14-day): 7.1 g/L
  Ab1 % titer increase vs unsupplemented: 9%
[5]; [16]
  Ab1 Titer (average 14-day): 7.1 g/L
  Ab1 % titer increase vs unsupplemented: 9%
Ab1-producing CHO cells [6]; 1 mM taurine in Only Production Phase, shake flask 6b
  Ab1 Titer (average 17-day): 7.8 g/L
Ab1-producing CHO cells [6]; 1 mM taurine in Seed Train and Production Phases, shake flask 6a
  Ab1 Titer (average 17-day): 7.7 g/L
[7]; Bioreactor 3b, day 6
  Ab3 Titer at day 6: 1.9 g/L
[7]; Bioreactor 3b, day 9
  Ab3 Titer at day 9: 5.3 g/L
[7]; Bioreactor 3b, day 14
  Ab3 Titer (average 14 day antibody titer): 7.3 g/L
[7]; day 6
  Ab3 approximate titer increase at day 6 compared to unsupplemented medium collected on same day: 12%
[7]; day 6, listed as taurine
  Ab3 approximate titer increase at day 6 compared to unsupplemented medium collected on same day: 12%
[7]; day 9
  Ab3 approximate titer increase at day 9 compared to unsupplemented medium collected on same day: 29%
[7]; day 9, listed as taurine
  Ab3 approximate titer increase at day 9 compared to unsupplemented medium collected on same day: 29%
[7]; day 14
  Ab3 approximate titer increase relative to baseline: 11%
[7]; day 14, listed as taurine
  Ab3 approximate titer increase relative to baseline: 11%
[8]; 250 mL shake flask 1b, harvested day 17
  Abl Titer (average 17-day antibody titer): 7.9 g/L
[8]; day 17, Flask 1b vs unsupplemented Flask 1a
  Approximate titer increase relative to baseline: 8%
